According to patent US20140329914A1, “Amphiphilic Peptides for Thoracic Air Leakage Occlusion” (3-D Matrix Ltd., priority 2011, published 2014):

Legend:
[1] = in vivo
Procedure: All animals were weighed with a digital platform scale (DUE600ST/M3s-A, Mettler Toledo Ltd.) on the day of operation, 5 days post-operation, and the day of autopsy.
Food consumption was checked every day. Any remaining amount of food was weighed with a digital platform scale (DUE600ST/ID3s-A, Mettler Toledo Ltd.) when present. If there was no uneaten diet, food consumption was recorded as 500 g.

[2] = parameters: species or system miniature swine (Gottingen); conditions: in vivo
Procedure: Blood for hematological examination was collected by catheter on the day of operation, 3 days after operation, and 7 days after operation, and the day of necropsy. Blood was collected into EDTA-2K coated blood collection tubes (VP-DK052K05, TERUMO Ltd.). Red blood cell count (RBC), white blood cell count (WBC), hemoglobin concentration (HGB), hematocrit (HCT), and platelet count (PLT) were measured using a multi-channel blood cell counter (Sysmex K-4500, Sysmex

[3] = Blood biochemical examination; type: in vivo, miniature swine (Gottingen)
Procedure: Blood for biochemical examination was centrifuged at 3,000 rpm at 4° C. for 15 min to obtain serum samples used to measure AST, ALT, ALP, total protein (TP), albumin (Alb), protein fraction (alb), alpha 1 globulin (α1-glb), alpha 2 globulin (α-glb), beta globulin (β-glb), gamma globulin (γ-glb), albumin/globulin ratio (A/G), total bilirubin (T-Bil), urea nitrogen (UN), creatinine (CRE), glucose (Glu), total cholesterol (T-Cho), triglycerides (TG), sodium, potassium, chloride, calcium, inorganic phosphate (IP), and C-reactive protein (CRP).

CC(=O)N[C@@H](CCCNC(=N)N)C(=O)N[C@@H](C)C(=O)N[C@@H](CC(=O)O)C(=O)N[C@@H](C)C(=O)N[C@@H](CCCNC(=N)N)C(=O)N[C@@H](C)C(=O)N[C@@H](CC(=O)O)C(=O)N[C@@H](C)C(=O)N[C@@H](CCCNC(=N)N)C(=O)N[C@@H](C)C(=O)N[C@@H](CC(=O)O)C(=O)N[C@@H](C)C(=O)N[C@@H](CCCNC(=N)N)C(=O)N[C@@H](C)C(=O)N[C@@H](CC(=O)O)C(=O)N[C@@H](C)C(N)=O [RADA16, Ac-(RADA)4-CONH2]
body weight and food intake [1]: generally maintained
general condition [1]: good general condition
WBC change [2]: elevated level of WBC
CRE ([3]; AD3: 3 days after treatment, per animal and Mean (n=3)): 1.12 mg/dL
CRP change ([3]; in vivo): elevated level of CRP
